The assay has as its target Platelet-activating factor receptor (Oryctolagus cuniculus). The experiment in a line: Inhibition of [3H]PAF binding to rabbit platelet membranes.

With `O=C(c1ccccc1)c1cccc(NC(=O)[C@@H]2OC(=O)N3[C@H](c4cccnc4)SC[C@@H]23)c1` [(1R,5S,7aR)-3-Oxo-5-pyridin-3-yl-dihydro-thiazolo[3,4-c]oxazole-1-carboxylic acid (3-benzoyl-phenyl)-amide], the Ki was determined as 2.5 µM. In turn, `O=C(c1ccccc1)c1cccc(NC(=O)[C@@H]2OC(=O)N3[C@@H](c4cccnc4)SC[C@@H]23)c1` [(1R,5R,7aR)-3-Oxo-5-pyridin-3-yl-dihydro-thiazolo[3,4-c]oxazole-1-carboxylic acid (3-benzoyl-phenyl)-amide] gave a Ki of 1.2 µM. This Ki is about 2.1-fold lower than that of the molecule before. Molecule `O=C(c1ccccc1)c1cccc(NC(=O)[C@H]2OC(=O)N3[C@@H](c4cccnc4)SC[C@@H]23)c1` [(1S,5R,7aR)-3-Oxo-5-pyridin-3-yl-dihydro-thiazolo[3,4-c]oxazole-1-carboxylic acid (3-benzoyl-phenyl)-amide] came in with a Ki of 0.024 µM. Take `O=C(c1ccccc1)c1cccc(NC(=O)[C@H]2OC(=O)N3[C@H](c4cccnc4)SC[C@@H]23)c1` [(1S,5S,7aR)-3-Oxo-5-pyridin-3-yl-dihydro-thiazolo[3,4-c]oxazole-1-carboxylic acid (3-benzoyl-phenyl)-amide]: the inhibition constant (Ki) came out at 0.15 µM. Consider `O=C(c1ccccc1)c1cccc(NC(=O)[C@@H]2CSC(c3cccnc3)N2)c1` (stereo partly drawn) [(R)-2-Pyridin-3-yl-thiazolidine-4-carboxylic acid (3-benzoyl-phenyl)-amide], for which the Ki was found to be 0.005 µM. This Ki is about 30-fold lower than that of the molecule before.

One may read the Ki as the equilibrium dissociation constant of an inhibitor or competing ligand from its target. A low value points to higher affinity.
